{"source": "paper PMC4850295", "about": "“Using a Genetically Encoded Sensor to Identify Inhibitors of Toxoplasma gondii Ca^2+ Signaling” (The Journal of Biological Chemistry, 2016)", "data": [{"molecular_target": "T1, recombinant T. gondii PKG (cGMP-dependent protein kinase; protein kinase G) (Toxoplasma gondii, UniProt Q8MMZ7)", "T1 sequence (Q8MMZ7 whole entry)": "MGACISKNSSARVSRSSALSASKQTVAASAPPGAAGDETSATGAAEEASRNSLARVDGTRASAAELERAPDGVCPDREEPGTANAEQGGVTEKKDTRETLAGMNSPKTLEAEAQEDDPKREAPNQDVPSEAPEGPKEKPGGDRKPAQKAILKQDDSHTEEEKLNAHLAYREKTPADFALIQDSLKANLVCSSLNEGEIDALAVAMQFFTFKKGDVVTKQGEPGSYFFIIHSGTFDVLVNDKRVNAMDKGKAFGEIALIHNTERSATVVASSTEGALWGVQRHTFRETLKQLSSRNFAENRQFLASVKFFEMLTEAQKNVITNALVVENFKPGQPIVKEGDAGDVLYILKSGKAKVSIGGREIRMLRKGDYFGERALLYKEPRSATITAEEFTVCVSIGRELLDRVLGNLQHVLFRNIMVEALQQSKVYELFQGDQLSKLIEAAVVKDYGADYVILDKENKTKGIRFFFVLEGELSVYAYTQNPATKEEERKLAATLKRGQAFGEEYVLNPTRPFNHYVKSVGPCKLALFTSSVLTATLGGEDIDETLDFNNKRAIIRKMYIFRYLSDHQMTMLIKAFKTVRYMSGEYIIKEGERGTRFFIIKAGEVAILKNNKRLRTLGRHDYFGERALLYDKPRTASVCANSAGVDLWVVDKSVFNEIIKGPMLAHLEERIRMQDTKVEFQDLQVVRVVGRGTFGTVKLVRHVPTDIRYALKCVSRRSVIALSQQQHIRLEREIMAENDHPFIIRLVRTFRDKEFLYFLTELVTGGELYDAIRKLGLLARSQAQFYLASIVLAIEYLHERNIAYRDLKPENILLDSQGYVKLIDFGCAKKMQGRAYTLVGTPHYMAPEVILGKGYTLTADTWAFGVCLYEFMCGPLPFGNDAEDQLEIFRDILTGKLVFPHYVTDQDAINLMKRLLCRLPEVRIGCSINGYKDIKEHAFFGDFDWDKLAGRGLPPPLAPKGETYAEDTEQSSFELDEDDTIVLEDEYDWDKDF", "test": "in vitro kinase assay (CycLex PKG assay kit)", "format": "biochemical", "details": "not given", "units": {"IC50": "µM"}, "values": [{"compound": "Fc1ccc(-c2nn3ncccc3c2-c2ccnc(Nc3ccc4c(c3)OCCO4)n2)cc1", "note": "[Inh1]", "IC50": 0.58}, {"compound": "Nc1nc(-c2ccc3c(c2)C(=Cc2cc(Br)c(O)c(Br)c2)C(=O)N3)cs1", "note": "[Inh2]", "IC50": 0.67}]}, {"molecular_target": "T1, recombinant T. gondii PKG (cGMP-dependent protein kinase; protein kinase G)", "test": "in vitro kinase assay (CycLex PKG assay kit)", "format": "biochemical", "details": "6.76 nM recombinant PKG", "values": [{"compound": "CN(C)Cc1ccn2c(-c3ccnc(N)n3)c(-c3ccc(F)cc3)nc2c1", "note": "[Cpd2, Compound 2]", "activity versus inhibitor concentration": "presence of increasing concentrations of Inh1, Inh2, or the PKG inhibitor Cpd2"}]}, {"tested_on": "T2, GCaMP5-expressing T. gondii", "T2 construct": "whole extracellular parasites expressing GCaMP5 Ca2+ sensor", "test": "not given", "parameters": "species or system GCaMP5-expressing Toxoplasma gondii, extracellular; GCaMP5 fluorescence (cytosolic Ca2+) after 100 uM zaprinast in compound-pretreated extracellular parasites, background-subtracted, relative to zaprinast alone", "details": "100 uM zaprinast stimulation; 10 min pretreatment; mean of two replicates; 0.23 h", "method_in_brief": "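Read-out is GCaMP5 calcium fluorescence (ex 485/em 525 nm) taken 4 min after 100 μM zaprinast at 37 °C, following 10 min compound pretreatment at 10 μM in duplicate biological replicates. Values are basal-subtracted fold change versus zaprinast-only controls; parasites held extracellular in Ringer's solution.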", "values": [{"compound": "Fc1ccc(-c2nn3ncccc3c2-c2ccnc(Nc3ccc4c(c3)OCCO4)n2)cc1", "note": "[Inh1]", "fold change in fluorescence relative to zaprinast alone": -0.1251}, {"compound": "Nc1nc(-c2ccc3c(c2)C(=Cc2cc(Br)c(O)c(Br)c2)C(=O)N3)cs1", "note": "[Inh2]", "fold change in fluorescence relative to zaprinast alone": 0.1475}, {"compound": "Cc1ccccc1-n1cnc2c(N)ncnc21", "note": "[SKF-97510]", "fold change in fluorescence relative to zaprinast alone": 1.09}, {"compound": "Nc1ncnc2c1ncn2-c1cccc(F)c1", "note": "[SKF-97560]", "fold change in fluorescence relative to zaprinast alone": 1.042}, {"compound": "CCC(CC)(CC)n1cnc2c(N)ncnc21", "note": "[SKF-97620]", "fold change in fluorescence relative to zaprinast alone": 0.9821}, {"compound": "Cn1cnc2c(N)ncnc21", "note": "[SKF-97623]", "fold change in fluorescence relative to zaprinast alone": 1.06}, {"compound": "Fc1ccc(-c2c(-c3ccccn3)nc3n2CCS3)cc1", "note": "[SKF-104365]", "fold change in fluorescence relative to zaprinast alone": 0.9062}, {"compound": "COc1ccc(-c2nc3n(c2-c2ccncc2)CCC3)cc1", "note": "[SKF-104493-B2]", "fold change in fluorescence relative to zaprinast alone": 0.9045}, {"compound": "CSc1ccc(-c2nc3n(c2-c2ccncc2)CCC3)cc1", "note": "[SKF-105561]", "fold change in fluorescence relative to zaprinast alone": 0.9692}, {"compound": "CS(=O)(=O)c1ccc(-c2nc3n(c2-c2ccncc2)CCC3)cc1", "note": "[SKF-105942]", "fold change in fluorescence relative to zaprinast alone": 0.9941}, {"compound": "CCSc1ccc(-c2nc3n(c2-c2ccncc2)CCC3)cc1", "note": "[SKF-106164-A2]", "fold change in fluorescence relative to zaprinast alone": 1.019}]}]}
